Reference: US20200087314A1, “HISTONE DEACETYLASE INHIBITORS” (BIOMARIN PHARMACEUTICAL INC., priority 2016, published 2020)
Where a name gives a salt, the structure may show the parent alone.

Tested on: Frataxin (FXN) mRNA expression
Test: Effect of HDAC inhibitors on frataxin (FXN) mRNA expression in iPSC derived neuronal cells (qRT-PCR)
Format: cell-based
Settings: iPSC derived neuronal cells differentiated 16 days, compound incubated 24 h
Description: Effect of HDAC Inhibitors on Frataxin (FXN) mRNA Expression
Method: mRNA quantification of compound-treated iPSC derived neuronal cells Neuronal stem cells were cultured in Neurobasal A medium (Life technologies #10888022) supplemented with N2, B27 (Life technologies #17502-048 and #17504-044), L-glutamine (Life technologies #25030081), supplemented with 20 ng/ml EGF (R&D Systems #236-EG) and 20 ng/ml bFGF (BioPioneer # HRP-0011). Neuronal differentiation was initiated by removing growth factors and culturing cells in Neurobasal A with N2 and B27. Cells were allowed to differentiate for 16 days. HDAC inhibitory compound was then added and incubate for 24 h. RNA isolation was performed using the RNeasy Plus mini kit (QIAgen #74134) using a QIAcube instrument per manufacturer's instructions. qRT-PCR was performed using qScript One-Step SYBR Green qRT-PCR Kit (Quanta Biosciences 170-8893BR) with the following conditions: 20 minutes at 50° C., 5 minutes at 95° C., and then 40 cycles of 20 seconds at 95° C., 20 seconds at 55° C., 30 seconds at 72° C. The primer sequences to detect expression of FXN were: 5′-[…]-3′ and 5′-[…]-3′.
Data for additional compounds for iPSC fold inductions and cLogP are shown in Table 4 The ranges reported for cLogP refer to the following. A<1, 1<B<2, 2<C<3, 3<D<5, E>5. NA refers to “not available.”

SMILES	Fold Induction
C[C@@H]1CN(Cc2ccc(C(=O)Nc3ccccc3N)cc2)CCN1CC(C)(C)O [Compound 480, (R)-N-(2-aminophenyl)-4-((4-(2-hydroxy-2-methylpropyl)-3-methylpiperazin-1-yl)methyl)benzamide]	2.0
C[C@@H]1CN(Cc2ccc(C(=O)Nc3ccccc3N)cc2)CCN1CC1CC1 [Compound 479, (R)-N-(2-aminophenyl)-4-((4-(cyclopropylmethyl)-3-methylpiperazin-1-yl)methyl)benzamide]	2.2
C[C@@H]1CN(Cc2ccc(C(=O)Nc3ccccc3N)cc2)C[C@H](C)N1CC1CC1 [Compound 487, N-(2-aminophenyl)-4-(((3R,5S)-4-(cyclopropylmethyl)-3,5-dimethylpiperazin-1-yl)methyl)benzamide]	1.3
Nc1ccccc1NC(=O)c1ccc(CN2CC3(C2)CN(CC2CC2)C3)cc1 [Compound 238, N-(2-aminophenyl)-4-((6-(cyclopropylmethyl)-2,6-diazaspiro[3.3]heptan-2-yl)methyl)benzamide]	1.5
CC(C)(O)CN1CCCN(Cc2ccc(C(=O)Nc3ccccc3N)cc2)CC1 [Compound 486, N-(2-aminophenyl)-4-((4-(2-hydroxy-2-methylpropyl)-1,4-diazepan-1-yl)methyl) benzamide]	1.9
C[C@@H]1CN(Cc2ccc(C(=O)Nc3ccccc3N)cc2)C[C@H](C)N1CC(C)(C)O [Compound 488, N-(2-aminophenyl)-4-(((3R,5S)-4-(2-hydroxy-2-methylpropyl)-3,5-dimethylpiperazin-1-yl)methyl)benzamide]	1.5
CC(C)(O)CN1CCC(Cc2ccc(C(=O)Nc3ccccc3N)cc2)CC1(C)C (stereo not drawn) [Compound 357, N-(2-aminophenyl)-4-((1-(2-hydroxy-2-methylpropyl)-2,2-dimethylpiperidin-4-yl)methyl)benzamide]	1.7
Nc1ccccc1NC(=O)c1ccc(CN2CCCN(CC3CC3)CC2)cc1 [Compound 485, N-(2-aminophenyl)-4-((4-(cyclopropylmethyl)-1,4-diazepan-1-yl)methyl) benzamide trihydrochloride]	2.2
CC(C)(O)CN1CCN(Cc2ccc(C(=O)Nc3ccccc3N)cc2)C(C)(C)C1 [Compound 492, N-(2-aminophenyl)-4-((4-(2-hydroxy-2-methylpropyl)-2,2-dimethylpiperazin-1-yl)methyl)benzamide]	1.2
Nc1cc(F)ccc1NC(=O)c1ccc(CC2CCN(CC3CC3)CC2)cc1 [Compound 163, N-(2-amino-4-fluorophenyl)-4-((1-(cyclopropylmethyl)piperidin-4-yl)methyl)benzamide]	1.2
CC1(C)CC(Cc2ccc(C(=O)Nc3ccccc3N)cc2)CCN1CC1CC1 (stereo not drawn) [Compound 356, N-(2-aminophenyl)-4-((1-(cyclopropylmethyl)-2,2-dimethylpiperidin-4-yl)methyl)benzamide]	2.0
C[C@@H]1CN(CC2CC2)C[C@H](C)N1Cc1ccc(C(=O)Nc2ccccc2N)cc1 [Compound 489, N-(2-aminophenyl)-4-(((2R,6S)-4-(cyclopropylmethyl)-2,6-dimethylpiperazin-1-yl)methyl)benzamide]	1.5
CC(C)(O)CN1CCN(Cc2ccc(C(=O)Nc3ccccc3N)cc2)CC1.Cl.Cl.Cl [Compound 146, N-(2-aminophenyl)-4-((4-(2-hydroxy-2-methylpropyl)piperazin-1-yl)methyl)benzamide]	1.8
CC1(C)CN(Cc2ccc(C(=O)Nc3ccccc3N)cc2)CCN1CC1CC1 [Compound 483, N-(2-aminophenyl)-4-((4-(cyclopropylmethyl)-3,3-dimethylpiperazin-1-yl)methyl)benzamide]	1.7
CC1(C)CC(Cc2ccc(C(=O)Nc3ccccc3N)cc2)CCN1 (stereo not drawn) [Compound 359, N-(2-aminophenyl)-4-((2,2-dimethylpiperidin-4-yl)methyl)benzamide]	1.9
Cl.Cl.Nc1ccccc1NC(=O)c1ccc(CN2CCCCC2)cc1 [Compound 171, N-(2-aminophenyl)-4-(piperidin-1-ylmethyl)benzamide]	0.9
Nc1cc(F)ccc1NC(=O)c1ccc(CC2CN(CC3CC3)C2)cc1 [Compound 169, N-(2-amino-4-fluorophenyl)-4-((1-(cyclopropylmethyl)azetidin-3-yl)methyl)benzamide]	1.3
C[C@@H]1CN(Cc2ccc(C(=O)Nc3ccccc3N)cc2)[C@@H](C)CN1CC1CC1 (racemic) [Compound 477, N-(2-aminophenyl)-4-(((2S,5R)-4-(cyclopropylmethyl)-2,5-dimethylpiperazin-1-yl)methyl)benzamide]	1.8

SMILES	Fold Induction
Nc1ccccc1NC(=O)c1ccc(CC2CCN(CC34CC5CC(CC(C5)C3)C4)CC2)cc1 [Compound 354, 4-((1-(((3r,5r,7r)-adamantan-1-yl)methyl)piperidin-4-yl)methyl)-N-(2-aminophenyl)benzamide]	1.9
Nc1ccccc1NC(=O)c1ccc(CN2CCC2)cc1 [Compound 176, N-(2-aminophenyl)-4-(azetidin-1-ylmethyl)benzamide]	1.5
CC(C)(C)CN1CCC(Cc2ccc(C(=O)Nc3ccc(F)cc3N)cc2)CC1 [Compound 162, N-(2-amino-4-fluorophenyl)-4-((1-neopentylpiperidin-4-yl)methyl)benzamide]	1.3
C[C@H]1CN(CC2CC2)CCN1Cc1ccc(C(=O)Nc2ccccc2N)cc1 [Compound 481, (S)-N-(2-aminophenyl)-4-((4-(cyclopropylmethyl)-2-methylpiperazin-1-yl)methyl)benzamide]	1.6
Cl.Cl.Cl.Nc1ccccc1NC(=O)c1ccc(CN2CCN(CC3CC3)CC2)cc1 [Compound 147, N-(2-aminophenyl)-4-((4-(cyclopropylmethyl)piperazin-1-yl)methyl)benzamide]	1.8
CC(C)(O)CN1CCN(Cc2ccc(C(=O)Nc3ccccc3N)cc2)CC1(C)C [Compound 484, N-(2-aminophenyl)-4-((4-(2-hydroxy-2-methylpropyl)-3,3-dimethylpiperazin-1-yl)methyl)benzamide]	1.6
CC(C)(O)CC1CCN(Cc2ccc(C(=O)Nc3ccccc3N)cc2)CC1 [Compound 181, N-(2-aminophenyl)-4-((4-(2-hydroxy-2-methylpropyl)piperidin-1-yl)methyl)benzamide]	1.5
C[C@@H]1CN(CC(C)(C)O)C[C@H](C)N1Cc1ccc(C(=O)Nc2ccccc2N)cc1 [Compound 490, N-(2-aminophenyl)-4-(((2R,6S)-4-(2-hydroxy-2-methylpropyl)-2,6-dimethylpiperazin-1-yl)methyl)benzamide]	1.4
Nc1ccccc1NC(=O)c1ccc(CC2CCN(CC3CC3)C2)cc1 (stereo not drawn) [Compound 555, N-(2-aminophenyl)-4-((1-(cyclopropylmethyl)pyrrolidin-3-yl)methyl)benzamide]	1.11
Cl.Cl.Nc1ccccc1NC(=O)c1ccc(CN2CCC3(CCCCC3)CC2)cc1 [Compound 174, 4-((3-azaspiro[5.5]undecan-3-yl)methyl)-N-(2-aminophenyl)benzamide]	1.1
C[C@H]1CN(CC(C)(C)O)CCN1Cc1ccc(C(=O)Nc2ccccc2N)cc1 [Compound 482, (S)-N-(2-aminophenyl)-4-((4-(2-hydroxy-2-methylpropyl)-2-methylpiperazin-1-yl)methyl)benzamide]	1.7
CC1(C)CCN(Cc2ccc(C(=O)Nc3ccccc3N)cc2)CC1.Cl.Cl [Compound 172, N-(2-aminophenyl)-4-((4,4-dimethylpiperidin-1-yl)methyl)benzamide]	1.4
CC(C)(O)CN1CCC(Cc2ccc(C(=O)Nc3ccc(F)cc3N)cc2)CC1 [Compound 161, N-(2-amino-4-fluorophenyl)-4-((1-(2-hydroxy-2-methylpropyl)piperidin-4-yl)methyl)benzamide]	1.2
Nc1ccccc1NC(=O)c1ccc(CN2CCC3(CC2)COC3)cc1 [Compound 175, 4-((2-oxa-7-azaspiro[3.5]nonan-7-yl)methyl)-N-(2-aminophenyl)benzamide]	1.5
CC1(C)CN(CC2CC2)CCN1Cc1ccc(C(=O)Nc2ccccc2N)cc1 [Compound 491, N-(2-aminophenyl)-4-((4-(cyclopropylmethyl)-2,2-dimethylpiperazin-1-yl)methyl)benzamide]	1.7
CC(C)=CC1CCN(Cc2ccc(C(=O)Nc3ccccc3N)cc2)CC1 [Compound 472, N-(2-aminophenyl)-4-((4-(2-methylprop-1-en-1-yl)piperidin-1-yl)methyl)benzamide]	1.5
CC(C)(O)CN1CCCC(Cc2ccc(C(=O)Nc3ccccc3N)cc2)CC1.Cl.Cl (stereo not drawn) [Compound 379, N-(2-aminophenyl)-4-((1-(2-hydroxy-2-methylpropyl)azepan-4-yl)methyl)benzamide dihydrochloride]	2.1
Nc1ccccc1NC(=O)c1ccc(CN2CC3(CNC3)C2)cc1 [Compound 241, 4-((2,6-diazaspiro[3.3]heptan-2-yl)methyl)-N-(2-aminophenyl)benzamide]	1.9
